Assay in the first data set: not given
The following applies: clinical use; cited from earlier work.
On to `Cc1cc(C#N)cc(C)c1Oc1nc(Nc2ccc(C#N)cc2)nc(N)c1Br` [ETR, Etravirine], for which the response rate was 36.5%.

Assay in another data set: not given
Details: not given
As to `N#Cc1ccc(Nc2nc(Oc3ccc(-c4ccc(C#N)cc4F)cc3)c3sccc3n2)cc1` [Example 1], the melting point (as a rule, the temperature, or range, at which the solid turns liquid) is 272.5 to 273.6 °C.
In turn, `Cc1cc(-c2ccc(Oc3nc(Nc4ccc(C#N)cc4)nc4ccsc34)cc2C)ccc1C#N` [Example 18] registered a melting point of 264.9 to 266.2 °C.
The same measure, in the same setting: as for `N#Cc1ccc(Nc2nc(Oc3ccc(-c4ccc(C#N)c(Cl)c4)cc3)c3sccc3n2)cc1` [Example 4], the figure is 246.3 to 247.7 °C.
Same read-out and setting: in the case of `Cc1cc(C#N)ccc1-c1ccc(Oc2nc(Nc3ccc(C#N)cc3)nc3ccsc23)cc1C` [Example 17] it was 274.3 to 275.8 °C.
For the compound `Cc1cc(-c2ccc(Oc3nc(Nc4ccc(C#N)cc4)nc4ccsc34)c(C)c2)ccc1C#N` [Example 16], the melting point was 259.4 to 261.1 °C.
In turn, `Cc1cc(-c2ccc(C#N)cc2F)ccc1Oc1nc(Nc2ccc(C#N)cc2)nc2ccsc12` [Example 9] came in with a melting point of 268.5 to 271 °C.
Turning to `N#Cc1ccc(Nc2nc(Oc3ccc(-c4ccc(C#N)cc4Cl)cc3)c3sccc3n2)cc1` [Example 3], the melting point was more than 300 °C.
The compound `N#Cc1ccc(Nc2nc(Oc3ccc(-c4ccc(C#N)cc4F)cc3F)c3sccc3n2)cc1` [Example 7] yielded a melting point of 295.3 to 297 °C.
On the same count and under the same terms, as for `Cc1cc(-c2ccc(C#N)cc2C)ccc1Oc1nc(Nc2ccc(C#N)cc2)nc2ccsc12` [Example 15], the figure is 262.4 to 263.7 °C; as for `Cc1cc(C#N)ccc1-c1ccc(Oc2nc(Nc3ccc(C#N)cc3)nc3ccsc23)cc1` [Example 5], 278.4 to 279.5 °C.
The same measure, in the same setting: in the case of `N#Cc1ccc(Nc2nc(Oc3ccc(-c4ccc(C#N)c(F)c4)cc3)c3sccc3n2)cc1` [Example 2] it was 258.8 to 260.3 °C.
Still for that read-out and setting: as for `Cc1cc(-c2ccc(Oc3nc(Nc4ccc(C#N)cc4)nc4ccsc34)c(F)c2)ccc1C#N` [Example 14], the figure is 252.5 to 254.2 °C.
Regarding `Cc1cc(C#N)ccc1-c1ccc(Oc2nc(Nc3ccc(C#N)cc3)nc3ccsc23)c(F)c1` [Example 13], the melting point was 275.2 to 276.8 °C.
`Cc1cc(-c2ccc(Oc3nc(Nc4ccc(C#N)cc4)nc4ccsc34)cc2)ccc1C#N` [Example 6] had a melting point of 256.5 to 257.9 °C.
On the same count and under the same terms, as for `N#Cc1ccc(Nc2nc(Oc3ccc(-c4ccc(C#N)c(F)c4)cc3F)c3sccc3n2)cc1` [Example 8], the figure is more than 300 °C; as for `Cc1cc(-c2ccc(C#N)c(F)c2)ccc1Oc1nc(Nc2ccc(C#N)cc2)nc2ccsc12` [Example 10], 299.3 to 300.2 °C.

A further data set in a line: Cytotoxicity in uninfected MT-4 cells (MTT assay). The data set is classed as cell-based. The following applies: human, uninfected MT-4 cells; concentration that reduces normal uninfected MT-4 cell viability by 50%. (Tetrazolium dyes change colour on reduction, which living cells bring about.)
`Cc1cc(C#N)cc(C)c1Oc1nc(Nc2ccc(C#N)cc2)nc(N)c1Br` [ETR, Etravirine]: the CC50 – broadly, the concentration at which the toxic effect on the cells reaches its halfway point – at 7 d is more than 4.61 µM.
On the same count and under the same terms, as for `Cc1ccnc2c1NC(=O)c1cccnc1N2C1CC1` [NVP, Nevirapine], the figure is more than 15 µM.

The same data set, now with this note: human; concentration that reduces normal uninfected MT-4 cell viability by 50%.
For `O=C1Nc2ccc(Cl)cc2[C@@](C#CC2CC2)(C(F)(F)F)O1` [EFV, Efavirenz], the CC50 at 7 d is more than 6.34 µM.
